# Measured values from PubChem BioAssay (NCI).
#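 Following 48 hours of exposure in 96-well plates, responses at five concentrations were used to interpolate endpoints linearly. At the GI50, growth is halved. At the TGI there is no net growth.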
# What was measured:
# Assay in all cases: NCI anticancer screen, dose series, 48 h
# [1] = system: BT-549 breast
# [2] = system: EKVX NSCLC
# [3] = system: HCT-15 colon
# [4] = system: SN12C renal
# [5] = system: HCT-116 colon
# [6] = system: SK-MEL-28 melanoma
# [7] = system: M14 melanoma
# [8] = system: HOP-92 NSCLC
# [9] = system: MALME-3M melanoma
# [10] = system: LOX IMVI melanoma
# [11] = system: SW-620 colon
# [12] = system: NCI-H23 lung
# [13] = system: MOLT-4 leukemia
# [14] = system: SF-268 CNS
# [15] = system: PC-3 prostate
# [16] = system: RXF 393 renal
# [17] = system: K-562 leukemia
# [18] = system: HS 578T breast
# [19] = system: HL-60(TB) leukemia
# [20] = system: SF-295 CNS
# [21] = system: MDA-MB-435
# [22] = system: CAKI-1 renal
# [23] = system: SF-539 CNS
# [24] = system: U251 CNS
# [25] = system: NCI-H460 lung
# [26] = system: HT29 colon
# [27] = system: UACC-257 melanoma
# [28] = system: 786-0 renal
# [29] = system: COLO 205 colon
# [30] = system: OVCAR-5 ovarian
# [31] = system: UACC-62 melanoma
# [32] = system: OVCAR-8 ovarian
# [33] = system: TK-10 renal
# [34] = system: A498 renal
# [35] = system: SR leukemia
# [36] = system: IGROV1 ovarian
# [37] = system: KM12 colon
# [38] = system: HCC-2998 colon
# [39] = system: SNB-19 CNS
# [40] = system: MCF7 breast
# [41] = system: NCI-H226 lung
# [42] = system: A549 NSCLC
# [43] = system: OVCAR-4 ovarian
# [44] = system: SK-MEL-2 melanoma
# [45] = system: DU-145 prostate
# [46] = system: NCI-H522 lung
# [47] = system: HOP-62 NSCLC
# [48] = system: RPMI-8226 leukemia
# [49] = system: ACHN renal
# [50] = system: CCRF-CEM leukemia
# [51] = system: MDA-MB-231 breast
# [52] = system: SK-OV-3 ovarian
# [53] = system: UO-31 renal
# [54] = system: OVCAR-3 ovarian
# [55] = system: T-47D breast
# [56] = system: SNB-75 CNS
# [57] = system: NCI/ADR-RES ovarian
structure (smiles),measurement,setting,value
CC(=O)O[C@@H]1C(=O)N(c2cnccn2)[C@H]1c1ccccc1[N+](=O)[O-],GI50,[1],295 nM
same,TGI,[1],1240 nM
same,GI50,[2],518 nM
same,TGI,[2],> 100000 nM
same,GI50,[3],421 nM
same,TGI,[3],14500 nM
same,GI50,[4],432 nM
same,TGI,[4],13800 nM
same,GI50,[5],330 nM
same,TGI,[5],6770 nM
same,GI50,[6],926 nM
same,TGI,[6],27400 nM
same,GI50,[7],323 nM
same,TGI,[7],5980 nM
same,GI50,[8],356 nM
same,TGI,[8],10900 nM
same,GI50,[9],526 nM
same,TGI,[9],40900 nM
same,GI50,[10],283 nM
same,TGI,[10],1690 nM
same,GI50,[11],396 nM
same,TGI,[11],19300 nM
same,GI50,[12],369 nM
same,TGI,[12],13000 nM
same,GI50,[13],452 nM
same,TGI,[13],> 100000 nM
same,GI50,[14],566 nM
same,TGI,[14],> 69500 nM
same,GI50,[15],582 nM
same,TGI,[15],25700 nM
same,GI50,[16],520 nM
same,TGI,[16],3560 nM
same,GI50,[17],341 nM
same,TGI,[17],> 100000 nM
same,GI50,[18],920 nM
same,TGI,[18],> 100000 nM
same,GI50,[19],288 nM
same,GI50,[20],865 nM
same,TGI,[20],12400 nM
same,GI50,[21],205 nM
same,TGI,[21],456 nM
same,GI50,[22],487 nM
same,TGI,[22],13300 nM
same,GI50,[23],234 nM
same,TGI,[23],575 nM
same,GI50,[24],366 nM
same,TGI,[24],10600 nM
same,GI50,[25],346 nM
same,TGI,[25],10800 nM
same,GI50,[26],2540 nM
same,TGI,[26],6610 nM
same,GI50,[27],992 nM
same,TGI,[27],63000 nM
same,GI50,[28],551 nM
same,TGI,[28],13400 nM
same,GI50,[29],3020 nM
same,TGI,[29],11800 nM
same,GI50,[30],550 nM
same,TGI,[30],16600 nM
same,GI50,[31],327 nM
same,TGI,[31],18800 nM
same,GI50,[32],299 nM
same,TGI,[32],946 nM
same,GI50,[33],14000 nM
same,TGI,[33],49900 nM
same,GI50,[34],> 100000 nM
same,TGI,[34],> 100000 nM
same,GI50,[35],350 nM
same,TGI,[35],> 100000 nM
same,GI50,[36],529 nM
same,TGI,[36],19000 nM
same,GI50,[37],362 nM
same,TGI,[37],19400 nM
same,GI50,[38],2100 nM
same,TGI,[38],10500 nM
same,GI50,[39],1860 nM
same,TGI,[39],> 100000 nM
same,GI50,[40],352 nM
same,TGI,[40],> 64200 nM
same,GI50,[41],527 nM
same,TGI,[41],9400 nM
same,GI50,[42],410 nM
same,TGI,[42],> 100000 nM
same,GI50,[43],720 nM
same,TGI,[43],> 100000 nM
same,GI50,[44],1960 nM
same,TGI,[44],> 100000 nM
same,GI50,[45],512 nM
same,TGI,[45],> 100000 nM
same,GI50,[46],184 nM
same,TGI,[46],436 nM
same,GI50,[47],1140 nM
same,TGI,[47],18300 nM
same,GI50,[48],384 nM
same,TGI,[48],22800 nM
same,GI50,[49],596 nM
same,TGI,[49],17400 nM
same,GI50,[50],435 nM
same,TGI,[50],> 100000 nM
same,GI50,[51],351 nM
same,TGI,[51],4850 nM
same,GI50,[52],781 nM
same,TGI,[52],> 100000 nM
same,GI50,[53],616 nM
same,TGI,[53],16300 nM
same,GI50,[54],288 nM
same,TGI,[54],3300 nM
same,GI50,[55],18500 nM
same,TGI,[55],> 100000 nM
same,GI50,[56],357 nM
same,TGI,[56],3100 nM
same,GI50,[57],311 nM
same,TGI,[57],7510 nM
